Drawing on patent US20090304692A1, “TRIAZINE COMPOUNDS AS PI3 KINASE AND MTOR INHIBITORS” (Wyeth, priority 2008, published 2009), this text covers IC50 for 18 compounds.

“And” between values parts separate entries of the source, which are not always exact repeats. Equal entries are not always repeated. Where two headings read alike, the source gives them in different places.

For one experiment, the target named is PI3K-α (Homo sapiens, UniProt P42336). Briefly: PI3K-alpha fluorescence polarization assay. To be noted: read-out: IC50 PI3Kα.
Chain of PI3K-α (P42336 whole entry, species assumed): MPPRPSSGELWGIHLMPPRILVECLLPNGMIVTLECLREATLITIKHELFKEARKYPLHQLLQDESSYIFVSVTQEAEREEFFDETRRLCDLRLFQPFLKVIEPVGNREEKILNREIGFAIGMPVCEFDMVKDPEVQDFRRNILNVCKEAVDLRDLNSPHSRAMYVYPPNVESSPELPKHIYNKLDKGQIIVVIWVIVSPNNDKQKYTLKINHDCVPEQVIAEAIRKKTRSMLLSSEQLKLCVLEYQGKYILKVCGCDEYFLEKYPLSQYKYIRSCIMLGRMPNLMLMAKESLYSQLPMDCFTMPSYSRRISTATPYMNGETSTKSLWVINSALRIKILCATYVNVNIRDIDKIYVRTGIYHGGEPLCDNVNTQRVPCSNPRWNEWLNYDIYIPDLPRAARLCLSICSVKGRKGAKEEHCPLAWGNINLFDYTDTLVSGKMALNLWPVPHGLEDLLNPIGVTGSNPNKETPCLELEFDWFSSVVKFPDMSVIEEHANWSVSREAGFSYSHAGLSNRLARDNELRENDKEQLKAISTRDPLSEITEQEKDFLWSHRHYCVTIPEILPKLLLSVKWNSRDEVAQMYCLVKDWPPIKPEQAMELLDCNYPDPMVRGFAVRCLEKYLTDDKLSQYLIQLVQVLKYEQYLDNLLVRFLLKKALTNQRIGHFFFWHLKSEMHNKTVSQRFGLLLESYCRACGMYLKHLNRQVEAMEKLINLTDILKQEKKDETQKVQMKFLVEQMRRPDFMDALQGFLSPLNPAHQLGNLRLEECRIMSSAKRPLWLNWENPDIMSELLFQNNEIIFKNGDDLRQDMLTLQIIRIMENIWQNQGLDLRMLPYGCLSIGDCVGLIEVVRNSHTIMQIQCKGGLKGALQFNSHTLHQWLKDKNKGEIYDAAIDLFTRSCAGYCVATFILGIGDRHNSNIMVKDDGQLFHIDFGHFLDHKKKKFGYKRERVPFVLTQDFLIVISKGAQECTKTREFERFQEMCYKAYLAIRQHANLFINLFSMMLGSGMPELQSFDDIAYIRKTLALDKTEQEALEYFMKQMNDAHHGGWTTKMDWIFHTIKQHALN
Chain of PI3K-α (P27986 whole entry partner, species assumed): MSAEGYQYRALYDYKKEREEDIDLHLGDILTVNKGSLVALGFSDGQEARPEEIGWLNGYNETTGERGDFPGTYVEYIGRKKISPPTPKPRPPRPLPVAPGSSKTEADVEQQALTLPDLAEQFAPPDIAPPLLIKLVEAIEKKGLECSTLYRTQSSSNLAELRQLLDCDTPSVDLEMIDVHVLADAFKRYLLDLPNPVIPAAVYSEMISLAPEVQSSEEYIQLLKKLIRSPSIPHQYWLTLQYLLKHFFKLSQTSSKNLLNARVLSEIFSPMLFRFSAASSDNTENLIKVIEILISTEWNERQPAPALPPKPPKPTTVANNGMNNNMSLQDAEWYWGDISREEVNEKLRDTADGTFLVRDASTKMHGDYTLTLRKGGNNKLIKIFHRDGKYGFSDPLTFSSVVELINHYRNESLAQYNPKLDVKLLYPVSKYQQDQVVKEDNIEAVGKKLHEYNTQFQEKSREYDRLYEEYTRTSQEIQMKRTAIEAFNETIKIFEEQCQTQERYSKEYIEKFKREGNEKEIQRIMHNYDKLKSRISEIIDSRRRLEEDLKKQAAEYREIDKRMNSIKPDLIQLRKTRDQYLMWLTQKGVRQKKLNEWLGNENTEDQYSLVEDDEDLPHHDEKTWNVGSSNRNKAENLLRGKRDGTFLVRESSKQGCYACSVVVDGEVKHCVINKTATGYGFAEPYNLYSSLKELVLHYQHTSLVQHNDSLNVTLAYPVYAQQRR
The next experiment concerns the target PI3K-γ (Homo sapiens, UniProt P48736). Briefly: PI3K-gamma fluorescence polarization assay. To be noted: read-out: IC50 PI3Kγ.
The test system of experiment [1] is human breast MDA-MB-361 tumor cell line. In words: In vitro cell culture growth assay (MTS), MDA-MB-361. The format is cell-based. The following applies: Homo sapiens, MDA-MB-361, 72 h, MTS cell growth assay, three days after drug treatment, read-out: IC50 MDA-MB-361.
The next experiment concerns the target Human mTOR (FLAG-TOR) (Homo sapiens, UniProt P42345). Briefly: mTOR kinase assay (DELFIA format, purified enzyme). To be noted: read-out: IC50 mTOR. It counts as biochemical.
In experiment [2] the test system is human prostate PC3-mm2 tumor cell line. Briefly: In vitro cell culture growth assay (MTS), PC3-mm2. The format is cell-based. The following applies: Homo sapiens, PC3MM2, 72 h, MTS cell growth assay, three days after drug treatment, read-out: IC50 PC3-mm2.

Chain of Human mTOR (FLAG-TOR) (P42345 1360-2549 limits assumed): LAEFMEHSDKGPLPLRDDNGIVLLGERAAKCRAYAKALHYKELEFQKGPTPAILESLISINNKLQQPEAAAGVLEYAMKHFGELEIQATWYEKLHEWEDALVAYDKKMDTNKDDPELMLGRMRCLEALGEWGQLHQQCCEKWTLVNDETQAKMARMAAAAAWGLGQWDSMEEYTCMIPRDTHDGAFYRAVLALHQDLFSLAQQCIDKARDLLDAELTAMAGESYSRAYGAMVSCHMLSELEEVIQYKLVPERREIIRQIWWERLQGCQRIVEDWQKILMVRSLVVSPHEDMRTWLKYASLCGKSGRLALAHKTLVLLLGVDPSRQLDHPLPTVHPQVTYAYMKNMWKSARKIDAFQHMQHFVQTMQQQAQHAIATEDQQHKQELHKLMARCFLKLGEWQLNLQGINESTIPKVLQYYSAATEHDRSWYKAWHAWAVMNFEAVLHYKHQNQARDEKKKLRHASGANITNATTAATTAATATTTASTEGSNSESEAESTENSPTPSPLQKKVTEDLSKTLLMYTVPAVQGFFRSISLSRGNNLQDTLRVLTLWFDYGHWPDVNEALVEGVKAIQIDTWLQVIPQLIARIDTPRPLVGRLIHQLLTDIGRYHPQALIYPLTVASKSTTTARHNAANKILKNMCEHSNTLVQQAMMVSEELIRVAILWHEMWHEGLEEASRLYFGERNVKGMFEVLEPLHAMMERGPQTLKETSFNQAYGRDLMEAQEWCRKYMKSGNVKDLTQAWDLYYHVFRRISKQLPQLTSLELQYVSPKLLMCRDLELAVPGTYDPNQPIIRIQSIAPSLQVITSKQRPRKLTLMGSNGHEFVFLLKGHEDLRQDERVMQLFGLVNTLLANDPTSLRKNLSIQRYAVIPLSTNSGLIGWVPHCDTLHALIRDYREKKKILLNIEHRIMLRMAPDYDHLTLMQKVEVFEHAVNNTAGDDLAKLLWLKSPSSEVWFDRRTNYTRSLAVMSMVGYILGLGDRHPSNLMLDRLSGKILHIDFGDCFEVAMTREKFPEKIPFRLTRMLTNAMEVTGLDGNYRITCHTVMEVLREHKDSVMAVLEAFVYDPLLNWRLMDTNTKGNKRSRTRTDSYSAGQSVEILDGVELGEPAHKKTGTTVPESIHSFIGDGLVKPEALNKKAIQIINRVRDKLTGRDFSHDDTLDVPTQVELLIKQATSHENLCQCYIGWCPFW
Chain of PI3K-γ (P48736 whole entry, species assumed): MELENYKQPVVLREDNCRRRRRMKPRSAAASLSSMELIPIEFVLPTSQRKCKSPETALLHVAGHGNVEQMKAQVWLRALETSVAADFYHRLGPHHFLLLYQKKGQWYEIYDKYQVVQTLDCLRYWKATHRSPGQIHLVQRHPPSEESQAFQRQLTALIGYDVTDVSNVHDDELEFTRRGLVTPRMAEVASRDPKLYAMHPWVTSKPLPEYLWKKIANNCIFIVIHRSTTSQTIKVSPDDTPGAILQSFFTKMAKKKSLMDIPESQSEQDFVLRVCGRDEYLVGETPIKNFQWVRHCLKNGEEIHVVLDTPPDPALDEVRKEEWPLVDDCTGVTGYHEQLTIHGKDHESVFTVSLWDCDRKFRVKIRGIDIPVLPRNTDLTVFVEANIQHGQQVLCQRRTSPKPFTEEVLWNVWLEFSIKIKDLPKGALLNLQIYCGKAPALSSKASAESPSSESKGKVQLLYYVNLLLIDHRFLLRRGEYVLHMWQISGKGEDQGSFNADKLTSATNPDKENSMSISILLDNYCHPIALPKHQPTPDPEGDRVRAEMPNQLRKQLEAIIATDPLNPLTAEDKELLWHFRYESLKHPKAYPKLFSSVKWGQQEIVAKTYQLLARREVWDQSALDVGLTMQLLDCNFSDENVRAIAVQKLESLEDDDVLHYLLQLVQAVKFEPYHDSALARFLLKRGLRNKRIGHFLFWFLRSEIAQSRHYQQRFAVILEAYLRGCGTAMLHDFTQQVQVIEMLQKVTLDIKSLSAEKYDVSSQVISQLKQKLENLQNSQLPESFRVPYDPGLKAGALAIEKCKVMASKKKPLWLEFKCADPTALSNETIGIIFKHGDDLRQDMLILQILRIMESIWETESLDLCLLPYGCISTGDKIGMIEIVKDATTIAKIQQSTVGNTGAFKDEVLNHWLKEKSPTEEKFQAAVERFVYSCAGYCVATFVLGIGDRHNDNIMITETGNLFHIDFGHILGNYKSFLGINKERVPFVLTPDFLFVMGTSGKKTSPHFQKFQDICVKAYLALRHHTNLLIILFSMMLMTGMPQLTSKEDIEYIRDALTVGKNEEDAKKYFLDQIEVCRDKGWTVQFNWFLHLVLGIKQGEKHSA

Turning to `Cc1cc(NC(=O)Nc2ccc(-c3nc(N4CCOCC4)nc(N4CCC5(CC4)OCCO5)n3)cc2)ccn1` [Example 135, 1-{4-[4-(1,4-dioxa-8-azaspiro[4.5]dec-8-yl)-6-morpholin-4-yl-1,3,5-triazin-2-yl]phenyl}-3-(2-methylpyridin-4-yl)urea], the IC50 amounted to 15 nM on PI3K-α; 15.5 nM on PI3K-α (listed as 710); 143 nM on PI3K-γ; 144 nM on PI3K-γ (listed as 710); 533 nM in experiment [1]; 34 nM at Human mTOR (FLAG-TOR). The IC50 in experiment [2] (PC3-mm2 cells) and in experiment [2] was 509 nM in each case.

Take `O=C(Nc1ccncc1)Nc1ccc(-c2nc(-c3cnc4ccccc4c3)nc(N3CCOCC3)n2)cc1` [Example 137, 1-[4-(4-morpholin-4-yl-6-quinolin-3-yl-1,3,5-triazin-2-yl)phenyl]-3-pyridin-4-ylurea]: the concentration for half-maximal inhibition (IC50) at PI3K-α is 9 nM; on PI3K-α (listed as 712) it was 9.5 nM; on PI3K-γ it was 117 nM; in experiment [1] it was 582 nM; at Human mTOR (FLAG-TOR), 8.55 nM; in experiment [2] (PC3-mm2 cells), 551 nM. Moreover, the concentration for half-maximal inhibition (IC50) in experiment [2] stood at 551 nM.

Regarding `O=C(Nc1ccc(C(=O)N2CCOCC2)cc1)Nc1ccc(-c2nc(N3CCOCC3)nc(N3CCOCC3)n2)cc1` [Example 152, 1-[4-(4,6-dimorpholin-4-yl-1,3,5-triazin-2-yl)phenyl]-3-[4-(morpholin-4-ylcarbonyl)phenyl]urea], the half-maximal inhibitory concentration (IC50) at PI3K-α amounted to 2 nM; at PI3K-γ, 5 nM; in experiment [1], 9 nM; on Human mTOR (FLAG-TOR) it was 2 nM; in experiment [2], 14 nM.

As to `Cc1nc(-c2ccc(NC(=O)Nc3ccncc3)cc2)nc(N2CCOCC2)n1` [Example 161, 1-[4-(4-methyl-6-morpholin-4-yl-1,3,5-triazin-2-yl)phenyl]-3-pyridin-4-ylurea], the half-maximal inhibitory concentration (IC50) at PI3K-α turned out to be 39 nM; at PI3K-γ, 155 nM; in experiment [1], 328 nM; on Human mTOR (FLAG-TOR) it was 30 nM; in experiment [2] it was 675 nM.

On to `CN1CCN(C(=O)c2ccc(NC(=O)Nc3ccc(-c4nc(C5=CCOCC5)nc(N5CCOCC5)n4)cc3)cc2)CC1` [Example 163, 1-{4-[4-(3,6-dihydro-2H-pyran-4-yl)-6-morpholin-4-yl-1,3,5-triazin-2-yl]phenyl}-3-{4-[(4-methylpiperazin-1-yl)carbonyl]phenyl}urea], for which the half-inhibitory concentration (IC50) at PI3K-α was 2 nM; on PI3K-α (listed as 507), 1.6 nM; on PI3K-γ it was 9 nM; on PI3K-γ (listed as 507) it was 8.7 nM; in experiment [1] (MDA-MB-361 cells), 10.7 nM; in experiment [1] it was 10.7 nM. Also, the IC50 at Human mTOR (FLAG-TOR) is 3.9 nM and 3.2 nM; in experiment [2] (PC3-mm2 cells) it was 28.3 nM; in experiment [2] it was 28.3 nM.

For the compound `Cc1nc(-c2ccc(NC(=O)Nc3ccc(C(=O)N(C)CCN(C)C)cc3)cc2)nc(N2CCOCC2)n1` [Example 165, N-[2-(dimethylamino)ethyl]-N-methyl-4-({[4-(4-methyl-6-morpholin-4-yl-1,3,5-triazin-2-yl)phenyl]carbamoyl}amino)benzamide], the 50% inhibitory concentration (IC50) at PI3K-α came to 9 nM; on PI3K-γ it was 101 nM; in experiment [1], 210 nM; at Human mTOR (FLAG-TOR), 28 nM; in experiment [2] it was 333 nM.

As to `Cc1nc(-c2ccc(NC(=O)Nc3ccc(C(=O)N4CCN(C)CC4)cc3)cc2)nc(N2CCOCC2)n1` [Example 166, 1-[4-(4-methyl-6-morpholin-4-yl-1,3,5-triazin-2-yl)phenyl]-3-{4-[(4-methylpiperazin-1-yl)carbonyl]phenyl}urea], the IC50 at PI3K-α worked out at 4 nM; on PI3K-γ, 33 nM; in experiment [1], 134 nM; at Human mTOR (FLAG-TOR), 60 nM; in experiment [2], 249 nM.

With `CCCCc1nc(-c2ccc(NC(=O)Nc3ccc(C(=O)O)cc3)cc2)nc(N2CCOCC2)n1` [Example 184, 4-({[4-(4-butyl-6-morpholin-4-yl-1,3,5-triazin-2-yl)phenyl]carbamoyl}amino)benzoic acid], the IC50 on PI3K-α was 30 nM; on PI3K-γ, 143 nM; in experiment [1], 1250 nM; on Human mTOR (FLAG-TOR), 4 nM; in experiment [2] it was 2090 nM.

In the case of `CCCCc1nc(-c2ccc(NC(=O)Nc3ccncc3)cc2)nc(N2CCOCC2)n1` [Example 186, 1-[4-(4-butyl-6-morpholin-4-yl-1,3,5-triazin-2-yl)phenyl]-3-pyridin-4-ylurea], the IC50 at PI3K-α came out at 28 nM; at PI3K-γ, 221 nM; in experiment [1], 473 nM; at Human mTOR (FLAG-TOR), 6 nM; in experiment [2] it was 703 nM.

Consider `O=C(Nc1ccncc1)Nc1ccc(-c2nc(N3CCOCC3)nc(N3C[C@@H]4C[C@H]3CO4)n2)cc1` [Example 189, 1-(4-{4-morpholin-4-yl-6-[(1S,4S)-2-oxa-5-azabicyclo[2.2.1]hept-5-yl]-1,3,5-triazin-2-yl}phenyl)-3-pyridin-4-ylurea], for which the IC50 was 19 nM at PI3K-α; 203 nM at PI3K-γ; 84 nM in experiment [1]; 28 nM on Human mTOR (FLAG-TOR); 99 nM in experiment [2].

Consider `C=C(OCC)c1nc(-c2ccc(NC(=O)Nc3ccncc3)cc2)nc(N2CCOCC2)n1` [Example 199, 1-{4-[4-(1-ethoxyvinyl)-6-morpholin-4-yl-1,3,5-triazin-2-yl]phenyl}-3-pyridin-4-ylurea], for which the IC50 was found to be 44 nM on PI3K-α; 144 nM on PI3K-γ; 96 nM in experiment [1]; 1 nM at Human mTOR (FLAG-TOR); 93 nM in experiment [2].

For the compound `COCCOc1nc(-c2ccc(NC(=O)Nc3ccncc3)cc2)nc(N2CCOCC2)n1` [Example 200, 1-{4-[4-(2-methoxyethoxy)-6-morpholin-4-yl-1,3,5-triazin-2-yl]phenyl}-3-pyridin-4-ylurea], the IC50 on PI3K-α was 14 nM; at PI3K-α (listed as 714), 15.5 nM; on PI3K-γ it was 128 nM; at PI3K-γ (listed as 714) it was 69 nM; in experiment [1], 162 nM; at Human mTOR (FLAG-TOR) it was 6.5 nM and 6.45 nM. Further, the IC50 in experiment [2] (PC3-mm2 cells) and in experiment [2] was 248 nM in each case.

Regarding `CC(=O)c1nc(-c2ccc(NC(=O)Nc3ccncc3)cc2)nc(N2CCOCC2)n1` [Example 209, 1-[4-(4-acetyl-6-morpholin-4-yl-1,3,5-triazin-2-yl)phenyl]-3-pyridin-4-ylurea], the IC50 on PI3K-α is 24 nM; on PI3K-γ, 99 nM; in experiment [1], 174 nM; at Human mTOR (FLAG-TOR) it was 9 nM; in experiment [2], 278 nM.

As for `COCCOc1nc(-c2ccc(NC(=O)Nc3ccc(C(=O)OC)cc3)cc2)nc(N2CCOCC2)n1` [Example 211, methyl 4-[({4-[4-(2-methoxyethoxy)-6-morpholin-4-yl-1,3,5-triazin-2-yl]phenyl}carbamoyl)amino]benzoate], the IC50 on PI3K-α worked out at 80 nM; on PI3K-α (listed as 715), 59.5 nM; at PI3K-γ, 108 nM; on PI3K-γ (listed as 715), 146 nM; in experiment [1], 254 nM; on Human mTOR (FLAG-TOR) it was 6 nM. For the same compound, the IC50 in experiment [2] (PC3-mm2 cells) and in experiment [2] was 389 nM each time.

For the compound `O=C(Nc1ccc(C(=O)O)cc1)Nc1ccc(-c2nc(C3=CCOCC3)nc(N3CCOCC3)n2)cc1` [Example 227, 4-[({4-[4-(3,6-dihydro-2H-pyran-4-yl)-6-morpholin-4-yl-1,3,5-triazin-2-yl]phenyl}carbamoyl)amino]benzoic acid], the IC50 was determined as 23 nM at PI3K-α; 81 nM on PI3K-γ; 1500 nM in experiment [1]; 7.3 nM on Human mTOR (FLAG-TOR); 4030 nM in experiment [2].

As for `O=C(Nc1ccncc1)Nc1ccc(-c2nc(CCNc3ccncc3)nc(N3CCOCC3)n2)cc1` [Example 228, 1-(4-{4-morpholin-4-yl-6-[2-(pyridin-4-ylamino)ethyl]-1,3,5-triazin-2-yl}phenyl)-3-pyridin-4-ylurea], the concentration for half-maximal inhibition (IC50) was 46 nM at PI3K-α; 40.5 nM on PI3K-α (listed as 718); 280 nM on PI3K-γ; 210 nM on PI3K-γ (listed as 718); 3920 nM in experiment [1]; 51 nM and 55 nM on Human mTOR (FLAG-TOR). Besides, the half-maximal inhibitory concentration (IC50) in experiment [2] (PC3-mm2 cells) and in experiment [2] was 7170 nM throughout.

As to `CC(=O)c1ccc(NC(=O)Nc2ccc(-c3nc(N4CCOCC4)nc(N4C5CCC4COC5)n3)cc2)cc1` [Example 230, 1-(4-acetylphenyl)-3-{4-[4-morpholin-4-yl-6-(3-oxa-8-azabicyclo[3.2.1]oct-8-yl)-1,3,5-triazin-2-yl]phenyl}urea], the IC50 is 22 nM on PI3K-α; 17.5 nM at PI3K-α (listed as 719); 119 nM at PI3K-γ; 96 nM on PI3K-γ (listed as 719); less than 31 nM in experiment [1] (MDA-MB-361 cells); 1.2 nM and 0.15 nM on Human mTOR (FLAG-TOR). The IC50 in experiment [2] (PC3-mm2 cells) was less than 31 nM.

Turning to `CCCCc1nc(-c2ccc(NC(=O)Nc3ccc(C(=O)NCCN(C)C)cc3)cc2)nc(N2CCOCC2)n1` [Example 231, 4-({[4-(4-butyl-6-morpholin-4-yl-1,3,5-triazin-2-yl)phenyl]carbamoyl}amino)-N-[2-(dimethylamino)ethyl]benzamide], the IC50 at PI3K-α was 4 nM; on PI3K-γ, 63 nM; in experiment [1] it was 20 nM; on Human mTOR (FLAG-TOR), 2.5 nM; in experiment [2], 121 nM.
